Test results published in patent publication US20250231185A1, “Coronavirus T Cell Epitopes, Megapools and Uses Thereof” (La Jolla Institute for Immunology, priority 2021, published 2025).
Entries after “also recorded” stand apart in the source; their conditions may differ. Like-named read-outs stand apart in the source and are kept apart here.

What was measured:
CD4+ T cells = conditions: cited from earlier work; for Restriction: T cell subset (CD4 or CD8) recognizing the SARS-CoV-2 epitope; for Allele(s): HLA class II allele(s) identified as MHC restriction elements of the CD4 epitope
CD8+ T cells [1] = conditions: T cell type (CD4 or CD8) recognizing the SARS-CoV-2 epitope; cited from earlier work
CD8+ T cells [2] = test: Meta-analysis of published SARS-CoV-2 CD8 T cell epitope data curated in the IEDB (25 studies); format: cell-based, human; conditions: SARS-CoV-2-derived CD8 epitopes; dominant = recognized by 3 or more donors/different studies
[3] = SARS-CoV-2-derived CD4 epitopes, Yes = recognized by 3 or more donors/different studies

Substance	Restriction (CD4+ T cells)	Allele(s) (CD4+ T cells)	Dominant (CD4+ T cells; [3])	also measured
71 (EGALNTPKDHIGTRN) [compound 71]	CD4	–	–	–
106 (AADLDDFSKQLQQSM) [compound 106]	CD4	–	–	–
49 (LNTDHSSSSDNIALL) [compound 49]	CD4	–	–	–
24 (SFNPETNILLNVPLH) [compound 24]	CD4	DRB1*01:02	–	–
60 (YYRRATRRIRGGDGK) [compound 60]	CD4	DRB1*13:01, DRB1*14:06	Yes (more dominant epitopes are defined by being recognized by 3 or more donors/different studies)	–
101 (ILLNKHIDAYKTFPP) [compound 101]	CD4	DRB1*14:06, DRB1*15:01	Yes (more dominant epitopes are defined by being recognized by 3 or more donors/different studies)	–
80 (KRTATKAYNVTQAFG) [compound 80]	CD4	DQB1*06:02, DQB1*06:03	Yes (more dominant epitopes are defined by being recognized by 3 or more donors/different studies)	–
78 (KKPRQKRTATKAYNV) [compound 78]	CD4	–	Yes (more dominant epitopes are defined by being recognized by 3 or more donors/different studies)	–
92 (GMEVTPSGTWLTYTGAIKLD) [compound 92]	CD4	–	Yes (more dominant epitopes are defined by being recognized by 3 or more donors/different studies)	–
5 (EELKKLLEQWNLVIG) [compound 5]	CD4	DQB1*05:01, DQB1*05:02	–	–
58 (DDQIGYYRRATRRIR) [compound 58]	CD4	DRB1*01:03, DRB1*07:01,; also recorded: DRB1*13:01, DRB1*14:01,; also recorded: DRB1*14:06, DRB1*15:01,; also recorded: DRB1*16:02	Yes (more dominant epitopes are defined by being recognized by 3 or more donors/different studies)	–
100 (FKDQVILLNKHIDAY) [compound 100]	CD4	DRB1*03:01, DRB1*14:01,; also recorded: DRB1*14:06, DRB1*15:01,; also recorded: DRB1*16:02	Yes (more dominant epitopes are defined by being recognized by 3 or more donors/different studies)	–
103 (QKKQQTVTLLPAADL) [compound 103]	CD4	DRB1*01:02	–	–
96 (TWLTYTGAIKLDDKDPNF) [compound 96]	CD4	–	–	–
29 (SELVIGAVILRGHLR) [compound 29]	CD4	DQB1*06:02, DQB1*06:03,; also recorded: DRB1*01:02, DRB1*13:01,; also recorded: DRB1*14:01, DRB1*15:01,; also recorded: DRB1*16:01	Yes (more dominant epitopes are defined by being recognized by 3 or more donors/different studies)	–
26 (NVPLHGTILTRPLLE) [compound 26]	CD4	–	–	–
9 (WICLLQFAYANRNRF) [compound 9]	CD4	DQB1*05:03, DRB1*03:01,; also recorded: DRB1*14:01	–	–
72 (AIVLQLPQGTTLPKG) [compound 72]	CD4	–	Yes (more dominant epitopes are defined by being recognized by 3 or more donors/different studies)	–
12 (LYIIKLIFLWLLWPV) [compound 12]	CD4	DQB1*02:01, DRB1*12:01	–	–
94 (PSGTWLTYTGAIKLD) [compound 94]	CD4	DQB1*06:03, DRB1*01:02,; also recorded: DRB1*01:03, DRB1*07:01,; also recorded: DRB1*15:01	Yes (more dominant epitopes are defined by being recognized by 3 or more donors/different studies)	–
51 (NAPRITFGGPSDSTG) [compound 51]	CD4	DQB1*03:01	–	–
258 (QEEVQELYSPIFLIV) [compound 258]	–	–	–	Dominant (CD4+ T cells; CD4 epitopes, dominant = recognized by 3 or more donors/different studies): Yes (more dominant epitopes are defined by being recognized by 3 or more donors/different studies)
16 (YRINWITGGIAIAMA) [compound 16]	CD4	DQB1*02:02, DQB1*03:01,; also recorded: DQB1*05:01, DQB1*05:02,; also recorded: DQB1*05:03, DQB1*06:02,; also recorded: DQB1*06:03, DRB1*07:01,; also recorded: DRB1*10:01, DRB1*12:01,; also recorded: DRB1*13:01, DRB1*14:01,; also recorded: DRB1*15:01, DRB1*16:01	Yes (more dominant epitopes are defined by being recognized by 3 or more donors/different studies)	–
57 (GVPINTNSSPDDQIG) [compound 57]	CD4	–	–	–
79 (KPRQKRTATKAYNVT) [compound 79]	CD4	DPB1*14:01	–	–

Substance	Restriction (CD4+ T cells)	Allele(s) (CD4+ T cells)	Dominant (CD4+ T cells; [3])	also measured
32 (LRGHLRIAGHHLGRC) [compound 32]	CD4	DRB1*11:01, DRB1*11:04	Yes (more dominant epitopes are defined by being recognized by 3 or more donors/different studies)	–
18 (AIAMACLVGLMWLSY) [compound 18]	CD4	–	–	–
52 (TFGGPSDSTGSNQNG) [compound 52]	CD4	DQB1*03:01	–	–
54 (SWFTALTQHGKEDLK) [compound 54]	CD4	–	Yes (more dominant epitopes are defined by being recognized by 3 or more donors/different studies)	–
48 (IGNYKLNTDHSSSSD) [compound 48]	CD4	DRB1*03:01	–	–
28 (RPLLESELVIGAVIL) [compound 28]	CD4	DQB1*02:02	–	–
83 (RRGPEQTQGNFGDQE) [compound 83]	CD4	–	–	–
1 (SEETGTLIVNSVLLF) [compound 1]	CD4	DQB1*03:01	–	–
37 (IKDLPKEITVATSRT) [compound 37]	CD4	–	Yes (more dominant epitopes are defined by being recognized by 3 or more donors/different studies)	–
20 (MWLSYFIASFRLFAR) [compound 20]	CD4	DQB1*02:01, DQB1*05:01,; also recorded: DQB1*05:02, DQB1*05:03,; also recorded: DRB1*03:01, DRB1*14:01,; also recorded: DRB1*14:06, DRB1*16:01,; also recorded: DRB1*16:02	Yes (more dominant epitopes are defined by being recognized by 3 or more donors/different studies)	–
88 (WPQIAQFAPSASAFF) [compound 88]	CD4	DQB1*02:02, DQB1*05:03,; also recorded: DRB1*04:04, DRB1*07:01,; also recorded: DRB1*15:01	Yes (more dominant epitopes are defined by being recognized by 3 or more donors/different studies)	–
73 (AGNGGDAALALLLLD) [compound 73]	CD4	DQB1*03:01, DQB1*06:02	Yes (more dominant epitopes are defined by being recognized by 3 or more donors/different studies)	–
27 (GTILTRPLLESELVI) [compound 27]	CD4	DRB1*13:01	–	–
82 (TQAFGRRGPEQTQGN) [compound 82]	CD4	–	–	–
6 (LLEQWNLVIGFLFLT) [compound 6]	CD4	DQB1*02:01, DQB1*05:03	–	–
47 (YSRYRIGNYKLNTDH) [compound 47]	CD4	–	–	–
40 (TSRTLSYYKLGASQRVA) [compound 40]	CD4	–	Yes (more dominant epitopes are defined by being recognized by 3 or more donors/different studies)	–
21 (FIASFRLFARTRSMW) [compound 21]	CD4	DQB1*05:03, DRB1*03:01,; also recorded: DRB1*14:01	–	–
22 (RLFARTRSMWSFNPE) [compound 22]	CD4	DQB1*05:03, DRB1*14:01	–	–
90 (ASAFFGMSRIGMEVT) [compound 90]	CD4	DQB1*05:03, DRB1*01:02,; also recorded: DRB1*14:01	Yes (more dominant epitopes are defined by being recognized by 3 or more donors/different studies)	–
99 (PNFKDQVILLNKHIDAYK) [compound 99]	CD4	–	–	–
10 (QFAYANRNRFLYIIK) [compound 10]	CD4	DRB1*14:01	Yes (more dominant epitopes are defined by being recognized by 3 or more donors/different studies)	–
84 (FGDQELIRQGTDYKH) [compound 84]	CD4	–	–	–
31 (GAVILRGHLRIAGHH) [compound 31]	CD4	DRB1*13:01, DRB1*15:01	–	–
930 (YTMADLVYAL) [compound 930]	–	–	–	Restriction (CD8+ T cells [1]): CD8; Dominant (CD8+ T cells [2]): Yes (more dominant epitopes are defined by being recognized by 3 or more donors/different studies)
